From patent US20250375465A1, “METHODS FOR AFFECTING TISSUE-RESIDENT T CELLS” (THE TRUSTEES OF THE UNIVERSITY OF PENNSYLVANIA, priority 2024, published 2025)
“Also recorded” adds a separate entry of the source.

Experiments:
[1] = system: primary human T cells; experiment: Kill curve in primary human (circulating) T cells, celltiter glow viability assay (FIG. 6C); assay type: cell-based; conditions: for apoptosis / killing of primary human T cells: FIG. 6C, 3 days incubation
Experimental: (Data extracted from J Clin Invest. 2022; 132 (16): e153514). FIG. 6C: in contrast to the AML cells, circulating T cells required about 100-fold higher dose of the GSPT-1 degrader to be depleted. The GSPT-1 degrader used in FIG. 6C is C90009, the same drug as in FIGS. 6A-6B. Blue curve: kill curve with MRT-2359. Primary human T cells were incubated with indicated doses for 3 days followed by viability quantification using a standard celltiter glow assay. Survival was quantified relative to T cells from the same donor treated with DMSO.

[2] = system: acute myeloid leukemia (AML) cells; conditions: FIG. 6A; data extracted from J Clin Invest. 2022; 132 (16): e153514; cited from earlier work
[3] = system: TRM isolated from healthy human skin; experiment: Viability of skin TRM versus blood T cells after GSPT1 degrader treatment (FIG. 10D); assay type: cell-based; conditions: 72 hours of treatment, n=6
Experimental: (§1) Given that GSPT1-degrading small-molecules are already advancing through early-phase trials for cancer, it was tested whether targeting GSPT1 could selectively affect TRM in vitro. TRM were isolated from healthy human skin (n=6) and their sensitivity was to the GSPT1-degrading drug CC-90009 with that of human blood T cells. […] In a similar study, another small molecule GSPT1 degrader, MRT-2359, was used to treat peripheral blood T cells from normal human donors for 24 hours in vitro at various concentrations.

[4] = target: T1, GSPT1 (Homo sapiens, UniProt P15170+Q96SW2); experiment: Western blot of GSPT1 protein in primary human T cells after degrader treatment (FIGS. 13A-13B); assay type: cell-based; conditions: primary human peripheral blood T cells, 24 hours in vitro, compared to DMSO control
T1 construct: GSPT1 protein in primary human T cells isolated from peripheral blood; endogenous in cells; host or cells: primary human T cells from peripheral blood of normal donors
T1 sequence (P15170 whole entry): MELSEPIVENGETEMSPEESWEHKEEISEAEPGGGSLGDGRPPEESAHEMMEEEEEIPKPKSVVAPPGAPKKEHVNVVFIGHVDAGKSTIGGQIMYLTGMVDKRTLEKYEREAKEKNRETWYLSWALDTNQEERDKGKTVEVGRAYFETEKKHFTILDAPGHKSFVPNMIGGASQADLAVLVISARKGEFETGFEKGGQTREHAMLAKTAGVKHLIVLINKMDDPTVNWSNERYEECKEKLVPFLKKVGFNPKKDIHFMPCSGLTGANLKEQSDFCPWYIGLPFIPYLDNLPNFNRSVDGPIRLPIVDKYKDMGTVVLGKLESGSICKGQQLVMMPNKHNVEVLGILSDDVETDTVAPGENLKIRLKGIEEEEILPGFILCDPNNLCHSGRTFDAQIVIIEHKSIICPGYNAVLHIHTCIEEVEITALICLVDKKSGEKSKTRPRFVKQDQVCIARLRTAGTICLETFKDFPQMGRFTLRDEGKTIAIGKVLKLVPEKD
T1 sequence (Q96SW2 whole entry): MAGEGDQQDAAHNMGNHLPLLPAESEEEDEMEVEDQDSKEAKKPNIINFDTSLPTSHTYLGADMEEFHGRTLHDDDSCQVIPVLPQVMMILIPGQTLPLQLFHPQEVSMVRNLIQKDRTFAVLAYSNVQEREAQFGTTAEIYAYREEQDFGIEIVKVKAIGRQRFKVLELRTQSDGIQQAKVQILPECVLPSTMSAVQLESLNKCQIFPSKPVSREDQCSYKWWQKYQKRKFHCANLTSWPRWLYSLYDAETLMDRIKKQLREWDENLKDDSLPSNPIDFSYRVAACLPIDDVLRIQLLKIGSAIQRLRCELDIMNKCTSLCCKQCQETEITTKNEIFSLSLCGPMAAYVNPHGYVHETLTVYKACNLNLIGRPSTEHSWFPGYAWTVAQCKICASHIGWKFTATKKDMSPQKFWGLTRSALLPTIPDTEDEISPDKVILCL
T1 sequence (Q16531 whole entry partner): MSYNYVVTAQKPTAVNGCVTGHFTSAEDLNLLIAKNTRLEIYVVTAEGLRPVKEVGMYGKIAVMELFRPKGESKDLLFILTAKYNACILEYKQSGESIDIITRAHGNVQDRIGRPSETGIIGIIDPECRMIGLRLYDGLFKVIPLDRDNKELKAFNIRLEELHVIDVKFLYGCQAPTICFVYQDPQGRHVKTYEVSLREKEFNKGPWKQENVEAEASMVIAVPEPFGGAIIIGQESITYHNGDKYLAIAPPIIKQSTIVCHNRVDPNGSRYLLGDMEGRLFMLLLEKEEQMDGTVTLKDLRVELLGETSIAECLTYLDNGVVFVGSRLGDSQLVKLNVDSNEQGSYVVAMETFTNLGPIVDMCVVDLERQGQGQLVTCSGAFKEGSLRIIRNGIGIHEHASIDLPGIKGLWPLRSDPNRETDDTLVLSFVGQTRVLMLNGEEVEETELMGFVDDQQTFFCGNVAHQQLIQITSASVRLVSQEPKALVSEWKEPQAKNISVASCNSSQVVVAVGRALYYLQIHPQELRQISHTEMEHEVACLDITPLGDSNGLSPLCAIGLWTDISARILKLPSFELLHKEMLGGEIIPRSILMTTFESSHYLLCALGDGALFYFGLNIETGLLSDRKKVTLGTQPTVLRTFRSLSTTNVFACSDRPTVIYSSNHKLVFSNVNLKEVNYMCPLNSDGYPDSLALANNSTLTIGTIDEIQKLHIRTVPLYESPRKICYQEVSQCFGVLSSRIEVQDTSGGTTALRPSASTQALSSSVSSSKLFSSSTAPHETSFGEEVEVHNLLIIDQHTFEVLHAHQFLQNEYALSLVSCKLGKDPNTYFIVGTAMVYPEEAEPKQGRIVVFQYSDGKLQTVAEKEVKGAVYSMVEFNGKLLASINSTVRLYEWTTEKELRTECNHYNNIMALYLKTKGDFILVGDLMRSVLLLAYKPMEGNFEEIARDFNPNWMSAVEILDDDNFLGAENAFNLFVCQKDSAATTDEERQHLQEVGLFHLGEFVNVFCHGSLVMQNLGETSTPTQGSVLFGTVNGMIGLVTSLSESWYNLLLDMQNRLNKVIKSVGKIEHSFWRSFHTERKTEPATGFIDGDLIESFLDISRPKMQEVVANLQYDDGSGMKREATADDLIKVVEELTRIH
Experimental: FIGS. 13A-13B illustrate degradation of GSPT1 in primary human T cells using CC-90009 and MRT-2359. FIG. 13A is a Western blot analysis of GSPT1 protein in primary human T cells isolated from peripheral blood. T cells were treated with indicated concentrations of GSPT1 degrader for 24 hours in vitro. GSPT1 protein was detected with a monoclonal anti-GSPT1 antibody. FIG. 13B is a graph quantifying GSPT1 protein remaining after degrader treatment as shown in FIG. 13A compared to a DMSO negative control.
as §1

[5] = system: primary leukemia cells; conditions: FIG. 6B; data extracted from J Clin Invest. 2022; 132 (16): e153514; cited from earlier work

## O=C1CCC(N2Cc3cc(CNC(=O)C(F)(F)c4ccc(Cl)cc4)ccc3C2=O)C(=O)N1 (stereo not drawn) [CC-90009]
[1]; FIG. 6C versus FIGS. 6A-6B
  dosage required for same level of apoptosis in primary (circulating) T cells versus cells of FIGS. 6A-6B: dramatically increased
[1]
  apoptosis / killing of primary human T cells: does apoptosis
[1]; primary human T cells incubated 3 days, survival relative to DMSO, compared with FIGS. 6A-6B
  dose required to deplete circulating T cells relative to AML cells: about 100 fold
[2]
  depletion / apoptosis of AML cells: dose-dependent apoptosis; also recorded: dose-dependent depletion
[3]
  viability of skin TRM compared with circulating T cells: reduced viability
[4]
  GSPT1 protein remaining after degrader treatment: significant dose-dependent loss of GSPT1 protein; also recorded: dose-dependent downregulation of GSPT1 protein
[5]
  depletion / apoptosis of primary leukemia cells: dose-dependent apoptosis; also recorded: dose-dependent depletion

## O=C1CCC(N2Cc3ccc(COC(=O)Nc4cc(OC(F)(F)F)ccc4F)cc3C2=O)C(=O)N1 (stereo not drawn) [MRT-2359]
[1]
  apoptosis / killing of primary human T cells: does apoptosis
[4]
  GSPT1 protein remaining after degrader treatment: significant dose-dependent loss of GSPT1 protein; also recorded: dose-dependent downregulation of GSPT1 protein
